Laboratory results taken from PMC7118210 (Frontiers in Pharmacology, 2020).

Columns and labels:
[1] = Multiple-dose pharmacokinetics in healthy humans; assay type: in vivo, human
Protocol: Naringin and placebo tablets were identical in appearance and participants, care providers, and those assessing outcomes were blinded to the study drug assignment. Using the Statistical Analysis System (SAS) software (Version 9.4, SAS Institute Inc., Cary, NC, USA), subject randomization and blinding/masking were performed by statisticians from the Department of Health Statistics at the Second Military Medical University. […] Human urine samples were collected at −12~0, 0~4, 4~8, 8~12, 12~24, 24~36, 36~48, 48~60, and 60~72 h for the single-dose groups and −12~0 (Day1), −12~0 (Day7), 0~4, 4~8, 8~12, 12~24, 24~36, 36~48, 48~60, and 60~72 h (Day7) for the multiple-dose group with records of volume. Human feces were collected in storage boxes, weighed, and recorded from 12 h before administration to 72 h postadministration. […] The optimal volume and activity in unit volume of enzyme solution [0.2 M acetic acid/water solution: 0.2 M ammonium acetate/water solution, 15:35 (v/v)] were determined through a pretest of the enzyme (rat plasma, 10 μl, 10 U μl^-1; dog plasma, 10 μl, 10 U μl^-1; human plasma, 20 μl, 20 U μl^-1; human urine, 10 μl, 10 U μl^-1). After enzyme incubation, 10 μl of IS solution was added to the plasma and urine samples (2 μg ml^-1 quercetin 3-β-D-glucoside for rat and dog plasma; 583 ng ml^-1 naringin-D4 and 160 ng ml^-1 naringenin-D4 for human plasma; and 9,710 ng ml^-1 naringin-D4 and 6,000 ng ml^-1 naringenin-D4 for human urine). To each fecal sample, 9-fold methanol-normal saline (2:1, v/v) was added, mixed (18,000 rpm, 15 min) by vortexing and centrifuged (10 min, 9,000 rpm, 4°C). Next, 10 μl IS solution (971 ng ml^-1 naringin-D4 and 600 ng ml^-1 naringenin-D4) was added to the supernatants of feces (200 μl) without enzyme incubation. […] The solid material was dissolved with acetonitrile-water (1:1, v/v) and injected into the ultra high-performance liquid chromatography coupled with triple quadrupole mass spectrometry (UHPLC/MS/MS) system as described below. The analysis of nonclinical and clinical samples was performed with a UHPLC/MS/MS system that consisted of a Shimadzu Nexera X2 ultra high-performance liquid chromatography (UHPLC) (Shimadzu Corp., Kyoto, Japan) coupled with an AB Sciex API4000 triple-quadrupole mass spectrometry (MS/MS) system (AB Sciex, Foster City, CA, USA) equipped with an electrospray ionization source and controlled by Analyst (v. 1.6.2) software. […] The injection volume was 10 μl with the flow rate of 0.3 ml min^-1 for plasma, and 0.4 ml min^-1 for urine and feces. The compounds were detected by multiple reaction monitoring in the negative ion electrospray mode. The electrospray source conditions were as follows: ion source gas1 30 psi, ion source gas2 60 psi, curtain gas 20 psi, collisionally activated dissociation (CAD) gas 8 psi, temperature 500°C, and ion spray voltage −4,500 V. Zero air was used for ion source gas1 and ion source gas2 and nitrogen for curtain gas and CAD gas. […] All pharmacokinetic and excretion parameters were expressed as mean ± standard deviation (SD). All mean and SD values were reported to three significant figures. The pharmacokinetic parameters were calculated using the Phoenix WinNonlin software (Version 6.4, Pharsight Corp., Cary, NC, USA) and compared using the Student's t-test (p < 0.05) in SPSS 18.0 (SPSS Inc., Chicago, IL, USA). […] For the multiple-dose studies, pharmacokinetic parameters included the mean plasma level at steady state, Tmax, t1/2, the percent fluctuation, and the accumulation index (Table 3). […] In addition, we compared the pharmacokinetic parameters obtained from males and females (Tables 4–6).

[2] = parameters: method as in Liu M. et al., 2012; settings: dogs, ref Liu M. et al., 2012, cited from earlier work
CYP 2C19 = target: T1, CYP 2C19 (Homo sapiens, UniProt P33261); assay: CYP enzyme pathway, human liver microsomes with (+/-)-N-3-benzylnirvanol (system III-human); assay type: in vitro ADME; settings: CYP2C19; of six metabolites measured in system III-human
T1 construct: human liver microsomes (2.25 μl); tissue RILD Research Institute for Live Diseases (Shanghai, China) Co.Ltd; host or cells: human liver microsomes, 10-donor pooled
T1 sequence (P33261 whole entry): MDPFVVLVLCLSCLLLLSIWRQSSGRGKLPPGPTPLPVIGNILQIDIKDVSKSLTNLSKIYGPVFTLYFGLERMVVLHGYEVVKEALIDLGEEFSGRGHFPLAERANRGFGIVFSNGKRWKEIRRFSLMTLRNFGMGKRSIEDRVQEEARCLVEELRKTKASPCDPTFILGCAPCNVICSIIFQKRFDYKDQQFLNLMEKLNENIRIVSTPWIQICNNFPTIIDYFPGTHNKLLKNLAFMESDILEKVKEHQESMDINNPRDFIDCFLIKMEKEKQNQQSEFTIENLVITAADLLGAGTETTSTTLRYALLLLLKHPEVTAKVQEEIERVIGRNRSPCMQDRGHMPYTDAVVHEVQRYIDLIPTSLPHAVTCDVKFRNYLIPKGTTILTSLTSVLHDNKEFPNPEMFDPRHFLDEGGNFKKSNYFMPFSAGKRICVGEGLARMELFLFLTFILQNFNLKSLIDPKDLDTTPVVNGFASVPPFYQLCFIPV
Protocol: (§1) Five single inhibitor working solutions were separately added. Their concentrations were as follows: α-naphthoflavone (0.04 mM) for CYP 1A2, sulfaphenazole (0.8 mM) for CYP 2C9, (+/-)-N-3-benzylnirvanol (0.8 mM) for CYP 2C19, quinidine (0.08 mM) for CYP 2D6, and ketoconazole (0.04 mM) for CYP 3A4/5. All protein concentrations were 0.15 mg ml^-1 in the incubation system, except 0.3 mg ml^-1 for the sulfaphenazole working solution. Then, NADPH (10 mM, 30 μl) was added and the mixed solution incubated for 45 min. Finally, cold acetonitrile (600 μl, containing 100 ng ml^-1 flufenamic acid) was added to every tube, mixed by vortexing, centrifuged for 30 min at 14,000 g and 4°C, and the supernatants transferred into centrifuge tubes and injected into the UHPLC/MS/MS system as described above. Incubations were run in triplicate experiments.
(§2) To analyze compounds in incubation system III-human, a Luna C18 column (Phenomenex Inc., Torrance, CA, USA; 2.0 mm × 50 mm, 5 μm) was used at 40°C. The mobile phase consisted of 0.1% formic acid (v/v) in water (A) and 0.1% formic acid in acetonitrile (B). […] The injection volume was 10 μl with flow rate of 0.2 ml min^-1. The compounds were detected by multiple reaction monitoring in the negative ion electrospray mode.

CYP 2D6 = target: T2, CYP 2D6 (Homo sapiens, UniProt P10635); assay: CYP enzyme pathway, human liver microsomes with quinidine (system III-human); assay type: in vitro ADME; settings: CYP2D6; of six metabolites measured in system III-human
T2 construct: human liver microsomes (2.25 μl); tissue RILD Research Institute for Live Diseases (Shanghai, China) Co.Ltd; host or cells: human liver microsomes, 10-donor pooled
T2 sequence (P10635 whole entry): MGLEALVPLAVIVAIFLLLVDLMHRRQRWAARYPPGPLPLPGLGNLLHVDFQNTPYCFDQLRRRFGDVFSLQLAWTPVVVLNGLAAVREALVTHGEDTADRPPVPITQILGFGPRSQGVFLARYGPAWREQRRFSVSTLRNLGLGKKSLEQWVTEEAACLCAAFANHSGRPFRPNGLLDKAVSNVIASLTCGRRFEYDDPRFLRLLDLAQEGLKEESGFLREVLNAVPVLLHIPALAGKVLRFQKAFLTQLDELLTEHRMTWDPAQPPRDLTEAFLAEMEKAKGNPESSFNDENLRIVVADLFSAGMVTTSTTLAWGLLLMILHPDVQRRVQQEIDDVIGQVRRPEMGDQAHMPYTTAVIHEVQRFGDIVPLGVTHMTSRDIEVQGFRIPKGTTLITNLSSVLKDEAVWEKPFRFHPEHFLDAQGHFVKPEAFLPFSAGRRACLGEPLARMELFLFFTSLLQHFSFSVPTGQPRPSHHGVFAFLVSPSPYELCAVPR
Protocol: as §1, §2

[3] = naringin 160 mg multiple dose, human, female
[4] = naringin 160 mg multiple dose, human, male
[5] = naringin 160 mg p.o. three times a day, multiple dose, human

SMILES | accumulation in multiple-dose study ([1]; in vivo) | CavSS [1, 3] [ng/mL] | CavSS [1, 4] [ng/mL] | CavSS [1, 5] [ng/mL] | Tmax [1, 5] [h] | time within which excreted [2] [h] | accumulation in multiple-dose study ([1]; humans) | Fluctuation [1, 3] [%] | Fluctuation [1, 4] [%] | Fluctuation ([1]; naringin 160 mg p.o. three times a day, multiple dose, human, (CmaxSS−CminSS)/CavSS×100%) [%] | metabolites the enzyme contributes to (CYP 2C19) | metabolites the enzyme contributes to (CYP 2D6) | cumulative excretion percentage ([2]; in the forms of naringin, naringenin, and 4-hydroxyphenylpropionic acid) [%]
O=C1C[C@@H](c2ccc(O)cc2)Oc2cc(O)cc(O)c21 [naringenin, Naringenin] | no significant accumulation | 22.6 ± 8.42 | 47.2 ± 47 | 39 ± 38.7 | 5.83 ± 1.17 | ≤ 24 | – | – | – | – | – | – | –
C[C@@H]1O[C@@H](O[C@H]2[C@H](Oc3cc(O)c4c(c3)O[C@H](c3ccc(O)cc3)CC4=O)O[C@H](CO)[C@@H](O)[C@@H]2O)[C@H](O)[C@H](O)[C@H]1O [naringin, Naringin] | – | 1.74 ± 0.377 | 1.75 ± 0.403 | 1.75 ± 0.365 | – | ≤ 24 | no significant accumulation | 149 ± 37.5 | 210 ± 79.6 | 187 ± 70.7 | four metabolites | three metabolites | 60
